Reference: PMC8989888, “Development of optimized drug-like small molecule inhibitors of the SARS-CoV-2 3CL protease for treatment of COVID-19” (Nature Communications, 2022)
Like-named read-outs stand apart in the source and are kept apart here.

Target: SARS-CoV-2 3CL protease (Severe acute respiratory syndrome coronavirus 2, UniProt P0DTD1)
Type: biochemical
Design: Avg: unit not given here
Conditions: for Inhibition at 10 µM: 10 µM compound; for Inhibition at 100 µM: 100 µM compound; for IC50 / LogIC50: Figure S1 and S2
[1] = log of IC50 (µM), dose-response curve fit

Row | SMILES | Inhibition at 10 µM [%] | Inhibition at 100 µM [%] | Avg (Conc 10 µM) | Avg (Conc 15 µM) | Avg (Conc 20 µM) | Avg (Conc 50 µM) | Avg (Conc 100 µM) | Avg (Conc 200 µM) | IC50 (dose-response curve fit) [µM] | LogIC50 [1] | Avg (Conc 10 µM, average response of dose-response curve) | Avg (Conc 15 µM, average response of dose-response curve) | Avg (Conc 20 µM, average response of dose-response curve) | Avg (Conc 50 µM, average response of dose-response curve) | Avg (Conc 100 µM, average response of dose-response curve) | Avg (Conc 200 µM, average response of dose-response curve) | IC50 (dose-response retest of fragment hits) [µM] | LogIC50 (log of IC50 in µM)
1 | O=C(NCCC(O)c1ccccc1)c1cccnc1S (centres unmarked) [Z1275438373] | 13 | 100 | 12.5 | 9.1 | 42.4 | 99.1 | 101.3 | 95.1 | 20.2 | 1.3058 |  |  |  |  |  |  |  | 
2 | O=C(NCC(CO)c1ccccc1)c1cccnc1S (centres unmarked) [Z1346056045] | 2 | 96 | 2.4 | 13.5 | 19.9 | 74.2 | 95.6 | 87.7 | 32.4 | 1.51 |  |  |  |  |  |  |  | 
3 | CCNC(=O)N1CCC(NC(=O)c2cccnc2S)C1 (centres unmarked) [Z1421663935] | 4 | 100 | 3.7 | 20 | 18.3 | 97.3 | 103.3 | 100 | 28 | 1.447 |  |  |  |  |  |  |  | 
4 | CCC(=O)N1CCC(NC(=O)c2cccnc2S)C1 (centres unmarked) [Z1429050837] | 24 | 100 | 24.1 | 26.1 | 20.9 | 87.9 | 102.1 | 100.5 | 42.3 | 1.626 |  |  |  |  |  |  |  | 
5 | Cc1nc(CCNC(=O)c2cccnc2S)sc1C [Z1432661577] | 10 | 100 | 10.2 | 5.7 | 26.8 | 103 | 104.1 | 108.4 | 20.8 | 1.319 |  |  |  |  |  |  |  | 
6 | COC1(CNC(=O)c2cccnc2S)CCOCC1 [Z1483040147] | 0 | 90 | -6.5 | -1.8 | 13.4 | 61.8 | 90 | 90.2 | 39.7 | 1.599 |  |  |  |  |  |  |  | 
7 | Cn1cc(CNC(=O)c2cccnc2S)c(C(F)(F)F)n1 [Z1488388701] | 2 | 100 | 2.1 | 19.8 | 26.9 | 96.9 | 107.8 | 105 | 25.7 | 1.41 |  |  |  |  |  |  |  | 
8 | CC(C)Cc1ncc(CNC(=O)c2cccnc2S)s1 [Z1494348106] | 4 | 100 | 3.5 | 37.1 | 49.8 | 100.8 | 102.9 | 93.1 | 18.8 | 1.275 |  |  |  |  |  |  |  | 
9 | O=C(NCc1ncccc1F)c1cccnc1S [Z1499268500] | 17 | 100 | 17.2 | 49.3 | 94.7 | 100.1 | 91.4 | 94.2 | 15 | 1.1775 |  |  |  |  |  |  |  | 
10 | CC(C)OC1CCC(NC(=O)c2cccnc2S)CC1 (centres unmarked) [Z1500153099] | 2 | 96 | 2.2 | 13 | 32.4 | 52.9 | 96.3 | 103 | 37.9 | 1.579 |  |  |  |  |  |  |  | 
11 | O=C(NCc1ccc(F)c(CO)c1)c1cccnc1S [Z1501229042] | 27 | 100 | 26.5 | 32.3 | 50.8 | 101.4 | 101.9 | 89.2 | 19.9 | 1.299 |  |  |  |  |  |  |  | 
12 | O=C(NCC1(O)CCc2ccccc21)c1cccnc1S (centres unmarked) [Z1501256406] | 55 | 82 | 55.2 | 87.1 | 101.3 | 96.8 | 82.6 | 65.5 |  |  |  |  |  |  |  |  |  | 
13 | O=C(NCCC1=CCOCC1)c1cccnc1S [Z1510476385] | 0 | 99 |  |  |  |  |  |  |  |  | 0.1 | 16 | 18.7 | 80.4 | 98.6 | 100.4 | 31.3 | 1.496
